According to patent US20230125482A1, “PROTEIN KINASE C MODULATORS” (Young Therapeutics, LLC, priority 2020, published 2023):
Where a SMILES comes first, the peptide text is derived from it. The star is where a group is joined. Myristoyl = CCCCCCCCCCCCCC(=O)*

Key:
[1] = Solubility of peptide; assay type: physicochemical
[2] = system: isolated rat hearts; assay: Myocardial ischemia/reperfusion (I/R) injury in isolated rat hearts (Langendorff, ex vivo); conditions: for Final Coronary Flow / Final Heart Rate / Final LVDP / Final LVEDP / Final LVESP / Final dP/dtmax / Final dP/dtmin: 50 min post-reperfusion; for Infarct Size: I(30 min)/R(50 min), infarct tissue weight/total tissue weight; for Initial Coronary Flow / Initial Heart Rate / Initial LVDP / Initial LVEDP / Initial LVESP / Initial dP/dtmax / Initial dP/dtmin: baseline before ischemia
Method: Rat hearts were isolated from anesthetized male Sprague Dawley rats (275-325 g), placed in ice-cold Krebs' buffer, and placed onto a Langendorff heart apparatus and retro perfused with Krebs' buffer at a constant pressure of 80 mmHg (FIG. 1). A pressure transducer measures heart rate, left ventricular end-systolic pressure, end-diastolic pressure, dP/dt max, and dP/dt min. Coronary flow is measured via a flow probe connected to the perfusion tubing. Cardiac function was recorded throughout the experimental protocol using a pressure transducer inserted into the left ventricle (15 min baseline; global I(30 min)/R(50 min)). Selected peptides of TABLE 1 or vehicle (control [0.05 to 0.2% Dimethylsulfoxide) were given during the first 5 min of reperfusion. All peptide inhibitors or activators were dissolved in 28% DMSO and the final concentration of DMSO with peptides or without peptides (control I/R hearts) delivered to all hearts was 0.06%. Statistical analysis was performed using ANOVA and Bonferroni-Dunn post-hoc test.
At the end of the experimental protocol, hearts were removed from the Langendorff apparatus, and frozen for 30 min at −20° C. Hearts were sectioned (2 mm) from base to apex and placed in 1% TTC for ˜10 min at 37° C. Viable tissue stained red and infarcted tissue was unstained (pale). Total tissue sections were weighed and infarcted tissue was separated from viable tissue and weighed to determine infarct size (i.e. infarct tissue weight/total tissue weight).

CCCCCCCCCCCCCC(=O)N[C@@H](Cc1ccc(O)cc1)C(=O)NCC(=O)N[C@@H](CCCNC(=N)N)C(=O)N[C@@H](CCCCN)C(=O)N[C@@H](CCCCN)C(=O)N[C@@H](CCCNC(=N)N)C(=O)N[C@@H](CCCNC(=N)N)C(=O)N[C@@H](CCC(N)=O)C(=O)N[C@@H](CCCNC(=N)N)C(=O)N[C@@H](CCCNC(=N)N)C(=O)N[C@@H](CCCNC(=N)N)C(=O)N[C@@H](CS)C(=O)N[C@@H](CS)C(=O)N[C@@H](CCC(=O)O)C(=O)N[C@@H](C)C(=O)N[C@H](C(=O)N[C@@H](CO)C(=O)N[C@@H](CC(C)C)C(=O)N[C@@H](CCCCN)C(=O)N1CCC[C@H]1C(=O)N[C@H](C(=O)O)[C@@H](C)O)C(C)C [Myr + TAT + PKCε-] (Myristoyl-YGRKKRRQRRRCCEAVSLKPT-OH; C-terminus assumed)
solubility [1]: ≤ 100 mM
Final Coronary Flow ([2]; 100 pM): 10 ± 1 mL/min
Final Heart Rate ([2]; 100 pM): 252 ± 8 BPM
Final LVDP ([2]; 100 pM): 47 ± 11 mmHg
Final LVEDP ([2]; 100 pM): 47 ± 10 mmHg
Final LVESP ([2]; 100 pM): 94 ± 14 mmHg
Final dP/dtmax ([2]; 100 pM): 1021 ± 246 mmHg/s
Final dP/dtmin ([2]; 100 pM): −688 ± 142 mmHg/s
Infarct Size ([2]; 100 pM): 18 ± 1%
Initial Coronary Flow ([2]; 100 pM): 18 ± 2 mL/min
Initial Heart Rate ([2]; 100 pM): 285 ± 6 BPM
Initial LVDP ([2]; 100 pM): 89 ± 3 mmHg
Initial LVEDP ([2]; 100 pM): 10 ± 0.4 mmHg
Initial LVESP ([2]; 100 pM): 100 ± 3 mmHg
Initial dP/dtmax ([2]; 100 pM): 2457 ± 37 mmHg/s
Initial dP/dtmin ([2]; 100 pM): −1726 ± 49 mmHg/s
Final Coronary Flow ([2]; 1 nM): 10 ± 1 mL/min
Final Heart Rate ([2]; 1 nM): 266 ± 6 BPM
Final LVDP ([2]; 1 nM): 49 ± 8 mmHg
Final LVEDP ([2]; 1 nM): 52 ± 9 mmHg
Final LVESP ([2]; 1 nM): 101 ± 9 mmHg
Final dP/dtmax ([2]; 1 nM): 1147 ± 156 mmHg/s
Final dP/dtmin ([2]; 1 nM): −733 ± 68 mmHg/s
Infarct Size ([2]; 1 nM): 10 ± 2 %
Initial Coronary Flow ([2]; 1 nM): 18 ± 1 mL/min
Initial Heart Rate ([2]; 1 nM): 293 ± 13 BPM
Initial LVDP ([2]; 1 nM): 91 ± 4 mmHg
Initial LVEDP ([2]; 1 nM): 10 ± 1 mmHg
Initial LVESP ([2]; 1 nM): 101 ± 5 mmHg
Initial dP/dtmax ([2]; 1 nM): 2440 ± 72 mmHg/s
Initial dP/dtmin ([2]; 1 nM): −1674 ± 106 mmHg/s
Final Coronary Flow ([2]; 30 nM): 9 ± 1 mL/min
Final Heart Rate ([2]; 30 nM): 261 ± 11 BPM
Final LVDP ([2]; 30 nM): 48 ± 10 mmHg
Final LVEDP ([2]; 30 nM): 50 ± 15 mmHg
Final LVESP ([2]; 30 nM): 108 ± 3 mmHg
Final dP/dtmax ([2]; 30 nM): 1059 ± 336 mmHg/s
Final dP/dtmin ([2]; 30 nM): −733 ± 99 mmHg/s
Infarct Size ([2]; 30 nM): 14 ± 2%
Initial Coronary Flow ([2]; 30 nM): 16 ± 1 mL/min
Initial Heart Rate ([2]; 30 nM): 271 ± 7 BPM
Initial LVDP ([2]; 30 nM): 88 ± 2 mmHg
Initial LVEDP ([2]; 30 nM): 11 ± 1 mmHg
Initial LVESP ([2]; 30 nM): 99 ± 2 mmHg
Initial dP/dtmax ([2]; 30 nM): 2344 ± 22 mmHg/s
Initial dP/dtmin ([2]; 30 nM): −1588 ± 18 mmHg/s
restoration of post-reperfused cardiac function compared to control I/R hearts ([2]; 100 nM given at the beginning of reperfusion for 5 minutes, 25 to 50 min): significantly restored post-reperfused cardiac function
Final Coronary Flow ([2]; 100 nM): 11 ± 2 mL/min
Final Heart Rate ([2]; 100 nM): 254 ± 12 BPM
Final LVDP ([2]; 100 nM): 66 ± 6 mmHg
Final LVEDP ([2]; 100 nM): 48 ± 13 mmHg
Final LVESP ([2]; 100 nM): 114 ± 11 mmHg
Final dP/dtmin ([2]; 100 nM): −981 ± 135 mmHg/s
Infarct Size ([2]; 100 nM): 8 ± 2 %
Initial Coronary Flow ([2]; 100 nM): 20 ± 2 mL/min
Initial Heart Rate ([2]; 100 nM): 301 ± 10 BPM
Initial LVDP ([2]; 100 nM): 89 ± 4 mmHg
Initial LVEDP ([2]; 100 nM): 9 ± 1 mmHg
Initial LVESP ([2]; 100 nM): 98 ± 3 mmHg
Initial dP/dtmax ([2]; 100 nM): 2528 ± 133 mmHg/s
Initial dP/dtmin ([2]; 100 nM): −1807 ± 125 mmHg/s
Final Coronary Flow ([2]; 1 μM): 10 ± 3 mL/min
Final Heart Rate ([2]; 1 μM): 296 ± 86 BPM
Final LVDP ([2]; 1 μM): 40 ± 15 mmHg
Final LVEDP ([2]; 1 μM): 60 ± 12 mmHg
Final LVESP ([2]; 1 μM): 101 ± 6 mmHg
Final dP/dtmax ([2]; 1 μM): 794 ± 220 mmHg/s
Final dP/dtmin ([2]; 1 μM): −616 ± 122 mmHg/s
Infarct Size ([2]; 1 μM): 5 ± 2 %
Initial Coronary Flow ([2]; 1 μM): 21 ± 1 mL/min
Initial Heart Rate ([2]; 1 μM): 274 ± 15 BPM
Initial LVDP ([2]; 1 μM): 94 ± 5 mmHg
Initial LVEDP ([2]; 1 μM): 10 ± 2 mmHg
Initial LVESP ([2]; 1 μM): 104 ± 6 mmHg
Initial dP/dtmax ([2]; 1 μM): 2493 ± 128 mmHg/s
Initial dP/dtmin ([2]; 1 μM): −1786 ± 97 mmHg/s
cardio depressive effect on post-reperfused cardiac function compared to all other groups ([2]; 10 μM): most cardio depressive effect
reduction of infarct size compared to control I/R hearts ([2]; 10 μM): reduced infarct size
stunning concentration relative to the concentration needed to produce a 50% reduction in infarct size ([2]; 10 μM): 10,000 times
stunning of the heart during reperfusion ([2]; 10 μM): caused stunning
effect on reducing infarct size ([2]; 10 μM and 1 μM): most robust effect on reducing infarct size
Final Coronary Flow ([2]; 10 μM): 0 mL/min
Final Heart Rate ([2]; 10 μM): 811 ± 79 BPM
Final LVDP ([2]; 10 μM): 1 ± 0.2 mmHg
Final LVEDP ([2]; 10 μM): 68 ± 17 mmHg
Final LVESP ([2]; 10 μM): 69 ± 17 mmHg
Final dP/dtmax ([2]; 10 μM): 54 ± 14 mmHg/s
Final dP/dtmin ([2]; 10 μM): −56 ± 14 mmHg/s
Infarct Size ([2]; 10 μM): 5 ± 2 %
Initial Coronary Flow ([2]; 10 μM): 18 ± 2 mL/min
Initial Heart Rate ([2]; 10 μM): 285 ± 24 BPM
Initial LVDP ([2]; 10 μM): 92 ± 3 mmHg
Initial LVEDP ([2]; 10 μM): 8 ± 2 mmHg
Initial LVESP ([2]; 10 μM): 101 ± 4 mmHg
Initial dP/dtmax ([2]; 10 μM): 2540 ± 158 mmHg/s
Initial dP/dtmin ([2]; 10 μM): −1772 ± 141 mmHg/s
minimum effective concentration, tissue-salvaging effects (infarct size) ([2]; ex vivo rat I/R hearts): 1 nM
decrease in minimum effective concentration (increase in potency to reduce infarct size) as compared to Myr+PKCε− ([2]; infarct size, FIG. 3): 10,000 ×
